Data published in ChEMBL document CHEMBL2146368, “Protective effects of caffeoylquinic acids on the aggregation and neurotoxicity of the 42-residue amyloid β-protein” (Bioorg Med Chem, 2012).
Activity calls are given as the source filed them. No cut-off for these calls is given here.

Tests used:
[1] = biological target: T1, Amyloid-beta precursor protein (Homo sapiens, UniProt P05067); assay: Inhibition of human amyloid beta (1 to 42) aggregation after 24 hrs by thioflavin-T fluorescence assay
[2] = biological target: T1, Amyloid-beta precursor protein; assay: Inhibition of human amyloid beta (1 to 42) aggregation at 1 to 100 uM after 24 hrs by thioflavin-T fluorescence assay
[3] = biological target: T1, Amyloid-beta precursor protein; assay: Inhibition of human amyloid beta (1 to 42) aggregates by measuring monomer concentration at 20 uM after 48 hrs by thermodynamic stability assay
[4] = biological target: T1, Amyloid-beta precursor protein; assay: Inhibition of amyloid beta (1 to 42)-mediated neurotoxicity in human SH-SY5Y cells assessed as increase in cell viability at 20 uM after 48 hrs by MTT assay; format: cell-based
[5] = biological target: T1, Amyloid-beta precursor protein; assay: Inhibition of human amyloid beta (1 to 42) beta-sheet formation at 50 uM after 12 to 24 hrs by CD-spectra analysis
[6] = biological target: T1, Amyloid-beta precursor protein; assay: Inhibition of amyloid beta (1 to 42)-mediated neurotoxicity in human SH-SY5Y cells assessed as increase in cell viability after 48 hrs by MTT assay; format: cell-based
[7] = biological target: T1, Amyloid-beta precursor protein; assay: Inhibition of human amyloid beta (1 to 42) fibril formation at 50 uM after 24 hrs by transmission electron microscopic analysis
[8] = biological target: T1, Amyloid-beta precursor protein; assay: Inhibition of human amyloid beta (1 to 42) oligomerization at 90 uM after 24 to 144 hrs by Dot blot analysis
[9] = biological target: T1, Amyloid-beta precursor protein; assay: Inhibition of human amyloid beta (1 to 42) oligomerization assessed as decrease in trimer formation at 50 uM after 2 hrs by Western blot analysis
[10] = biological target: T1, Amyloid-beta precursor protein; assay: Inhibition of human amyloid beta (1 to 42) oligomerization assessed as decrease in trimer formation at 25 uM after 2 hrs by Western blot analysis

T1 sequence (P05067 whole entry): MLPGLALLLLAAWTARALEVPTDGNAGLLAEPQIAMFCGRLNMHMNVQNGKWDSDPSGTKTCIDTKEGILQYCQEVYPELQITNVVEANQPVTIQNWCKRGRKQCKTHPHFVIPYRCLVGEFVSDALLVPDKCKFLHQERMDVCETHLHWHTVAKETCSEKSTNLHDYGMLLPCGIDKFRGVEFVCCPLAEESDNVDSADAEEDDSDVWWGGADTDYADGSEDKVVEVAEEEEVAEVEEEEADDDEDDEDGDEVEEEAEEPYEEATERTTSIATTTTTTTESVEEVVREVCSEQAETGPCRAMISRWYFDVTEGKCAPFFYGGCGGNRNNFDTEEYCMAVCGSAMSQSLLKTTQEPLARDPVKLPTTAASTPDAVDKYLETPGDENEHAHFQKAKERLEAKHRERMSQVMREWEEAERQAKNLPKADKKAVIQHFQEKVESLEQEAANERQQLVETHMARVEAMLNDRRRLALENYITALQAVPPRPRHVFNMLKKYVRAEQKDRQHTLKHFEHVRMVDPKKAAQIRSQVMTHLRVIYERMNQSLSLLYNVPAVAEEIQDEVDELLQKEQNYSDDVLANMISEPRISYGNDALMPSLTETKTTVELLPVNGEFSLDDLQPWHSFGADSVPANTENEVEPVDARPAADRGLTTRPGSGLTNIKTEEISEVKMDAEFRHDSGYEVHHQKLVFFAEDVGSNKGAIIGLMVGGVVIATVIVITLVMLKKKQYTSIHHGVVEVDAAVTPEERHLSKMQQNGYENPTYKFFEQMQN

Compound | IC50 [1] | inhibition [2] | further results
COC(=O)[C@]1(O)C[C@@H](O)[C@@H](O)[C@H](OC(=O)/C=C/c2ccc(O)c(O)c2)C1 [CHLOROGENIC ACID METHYL ESTER] | > 100 µM | inactive | –
O=C(O)/C=C/c1ccccc1 [CINNAMIC ACID] | > 100 µM | inactive | –
O=C(/C=C/c1ccc(O)c(O)c1)O[C@@H]1C[C@](O)(C(=O)O)C[C@@H](O)[C@H]1O [CHLOROGENIC ACID] | 92.9 µM | – | inhibition [1]: Dose-dependent effect
O=C(O)[C@]1(O)C[C@@H](O)[C@@H](O)[C@H](O)C1 (relative stereo) [QUINIC ACID] | > 100 µM | inactive | Activity [3]: 1.2 µM; inhibition [9]: 100%

Compounds with a lower IC50 [1], results first:

IC50 [1] | inhibition [2] | Compound | further results
2.2 µM | Active | O=C(/C=C/c1ccc(O)c(O)c1)O[C@H]1[C@H](O)C[C@](OC(=O)/C=C/c2ccc(O)c(O)c2)(C(=O)O)C[C@H]1OC(=O)/C=C/c1ccc(O)c(O)c1 | –
16.4 µM | Active | O=C(/C=C/c1ccc(O)c(O)c1)O[C@@H]1C[C@](O)(C(=O)O)C[C@@H](OC(=O)/C=C/c2ccc(O)c(O)c2)[C@H]1O | –
0.1 µM | Active | O=C(/C=C/c1ccc(O)c(O)c1)O[C@H]1[C@H](O)C[C@](O)(C(=O)O)C[C@H]1OC(=O)/C=C/c1ccc(O)c(O)c1 | Activity [3]: 10 µM; Activity [4]: 78.9%; inhibition [5]: Active; inhibition [6]: Dose-dependent effect; inhibition [7]: Active
4.7 µM | Active | O=C(/C=C/c1ccc(O)c(O)c1)O[C@@H]1[C@H](O)C[C@@](O)(C(=O)O)C[C@H]1OC(=O)/C=C/c1ccc(O)c(O)c1 | –
32.8 µM | – | O=C(O)/C=C/c1ccc(O)c(O)c1 [CAFFEIC ACID] | inhibition [1]: Dose-dependent effect
0.3 µM | Active | O=C(/C=C/c1ccc(O)c(O)c1)O[C@@H]1C[C@](O)(C(=O)O)C[C@@H](OC(=O)/C=C/c2ccc(O)c(O)c2)[C@H]1OC(=O)/C=C/c1ccc(O)c(O)c1 | Activity [3]: 27 µM; inhibition [8]: Active; Activity [4]: 96.1%; inhibition [9]: 63.1%; inhibition [5]: Active; inhibition [6]: Dose-dependent effect; inhibition [10]: 87.6%; inhibition [7]: Active
3 µM | Active | COC(=O)[C@]1(O)C[C@@H](OC(=O)/C=C/c2ccc(O)c(O)c2)[C@@H](OC(=O)/C=C/c2ccc(O)c(O)c2)[C@H](OC(=O)/C=C/c2ccc(O)c(O)c2)C1 | –
